System: 857933-349-R-J2-PDC complex spheroid viability
Experiment: Anticancer human tumor 857933-349-R-J2-PDC patient-derived colon adenocarcinoma cell line growth inhibition [POLQ]
Settings: for IC50: curve of first compound; for viability, T/C: stronger effect = lower value
Outline: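 Complex spheroid viability model combining PDC tumour cells with endothelial (HUVEC) and MSC stromal cells. Novobiocin, ART-558 or RP6685 were tested singly and in combination with standard and investigational anticancer drugs. Each was titrated in half-log steps from near clinical Cmax, or from 10 microM where Cmax was unknown.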

[1] = second compound 0.0316 µM, first compound 0.0316 µM
[2] = second compound 0.0316 µM, first compound 0.1 µM
[3] = second compound 0.0316 µM, first compound 0.316 µM
[4] = second compound 0.0316 µM, first compound 1 µM
[5] = second compound 0.1 µM, first compound 0.0316 µM
[6] = second compound 0.1 µM, first compound 0.1 µM
[7] = second compound 0.1 µM, first compound 0.316 µM
[8] = second compound 0.1 µM, first compound 1 µM
[9] = second compound 0.316 µM, first compound 0.0316 µM
[10] = second compound 0.316 µM, first compound 0.1 µM
[11] = second compound 0.316 µM, first compound 0.316 µM
[12] = second compound 0.316 µM, first compound 1 µM
[13] = second compound 1 µM, first compound 0.0316 µM
[14] = second compound 1 µM, first compound 0.1 µM
[15] = second compound 1 µM, first compound 0.316 µM
[16] = second compound 1 µM, first compound 1 µM
[17] = second compound 3.16 µM, first compound 0.0316 µM
[18] = second compound 3.16 µM, first compound 0.1 µM
[19] = second compound 3.16 µM, first compound 0.316 µM
[20] = second compound 3.16 µM, first compound 1 µM
[21] = second compound 10 µM, first compound 0.0316 µM
[22] = second compound 10 µM, first compound 0.1 µM
[23] = second compound 10 µM, first compound 0.316 µM
[24] = second compound 10 µM, first compound 1 µM
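Further: spheroids exposed to compounds for seven days before readout.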

Question: CC1COCCN1c1cc(C2(O)CC3CCC(C2)O3)c2cnn(-c3ccn[nH]3)c2n1 (centres undefined) + Nc1ccc(C#CCN(C(=O)Cc2ncc(C(F)(F)F)cc2C(F)(F)F)c2ccc(F)cc2)nn1 was tested. Which IC50 (second compound 0.0316 µM) did it give?
Answer: Its IC50 is 863 nM.

Question: And the IC50 (second compound 0.1 µM)?
Answer: Its IC50 is > 10000 nM.

Question: And the IC50 (second compound 0.316 µM)?
Answer: The IC50 was 787 nM.

Question: What about the IC50 (second compound 1 µM) of the same molecule?
Answer: Its IC50 is 662 nM.

Question: What about the IC50 (second compound 3.16 µM) of the same molecule?
Answer: The IC50 was > 10000 nM.

Question: What about the IC50 (second compound 10 µM) of the same molecule?
Answer: Its IC50 is > 10000 nM.

Question: And the viability, T/C [1]?
Answer: The viability, T/C was 72.7%.

Question: What about the viability, T/C [2] of the same molecule?
Answer: The viability, T/C was 76.5%.

Question: What about the viability, T/C [3] of the same molecule?
Answer: Its viability, T/C is 60.7%.

Question: And the viability, T/C [4]?
Answer: The viability, T/C was 50.3%.

Question: What about the viability, T/C (second compound 0.0316 µM, first compound 3.16 µM) of the same molecule?
Answer: The viability, T/C was 47.4%.

Question: And the viability, T/C (second compound 0.0316 µM, first compound 10 µM)?
Answer: The viability, T/C was 47.6%.

Question: What about the viability, T/C [5] of the same molecule?
Answer: Its viability, T/C is 74.4%.

Question: And the viability, T/C [6]?
Answer: The viability, T/C was 74.7%.

Question: What about the viability, T/C [7] of the same molecule?
Answer: Its viability, T/C is 52.7%.

Question: And the viability, T/C [8]?
Answer: Its viability, T/C is 53.1%.

Question: And the viability, T/C (second compound 0.1 µM, first compound 3.16 µM)?
Answer: Its viability, T/C is 45.5%.

Question: And the viability, T/C (second compound 0.1 µM, first compound 10 µM)?
Answer: The viability, T/C was 59%.

Question: And the viability, T/C [9]?
Answer: Its viability, T/C is 77.9%.

Question: And the viability, T/C [10]?
Answer: Its viability, T/C is 63.2%.

Question: And the viability, T/C [11]?
Answer: The viability, T/C was 58.2%.

Question: And the viability, T/C [12]?
Answer: The viability, T/C was 46.2%.

Question: What about the viability, T/C (second compound 0.316 µM, first compound 3.16 µM) of the same molecule?
Answer: The viability, T/C was 44.7%.

Question: And the viability, T/C (second compound 0.316 µM, first compound 10 µM)?
Answer: The viability, T/C was 40.1%.

Question: And the viability, T/C [13]?
Answer: The viability, T/C was 78%.

Question: What about the viability, T/C [14] of the same molecule?
Answer: Its viability, T/C is 70.4%.

Question: And the viability, T/C [15]?
Answer: The viability, T/C was 61.8%.

Question: And the viability, T/C [16]?
Answer: The viability, T/C was 40.9%.

Question: And the viability, T/C (second compound 1 µM, first compound 3.16 µM)?
Answer: Its viability, T/C is 40%.

Question: What about the viability, T/C (second compound 1 µM, first compound 10 µM) of the same molecule?
Answer: Its viability, T/C is 49.2%.

Question: And the viability, T/C [17]?
Answer: The viability, T/C was 79.2%.

Question: What about the viability, T/C [18] of the same molecule?
Answer: The viability, T/C was 72.3%.

Question: And the viability, T/C [19]?
Answer: The viability, T/C was 61.4%.

Question: And the viability, T/C [20]?
Answer: The viability, T/C was 44.1%.

Question: What about the viability, T/C (second compound 3.16 µM, first compound 3.16 µM) of the same molecule?
Answer: Its viability, T/C is 49.9%.

Question: What about the viability, T/C (second compound 3.16 µM, first compound 10 µM) of the same molecule?
Answer: The viability, T/C was 56.4%.

Question: And the viability, T/C [21]?
Answer: Its viability, T/C is 78.2%.

Question: What about the viability, T/C [22] of the same molecule?
Answer: Its viability, T/C is 58.9%.

Question: And the viability, T/C [23]?
Answer: The viability, T/C was 62.1%.

Question: What about the viability, T/C [24] of the same molecule?
Answer: The viability, T/C was 54%.

Question: What about the viability, T/C (second compound 10 µM, first compound 3.16 µM) of the same molecule?
Answer: Its viability, T/C is 48.6%.

Question: What about the viability, T/C (second compound 10 µM, first compound 10 µM) of the same molecule?
Answer: Its viability, T/C is 56%.

Question: COc1cccc(OCCCN)c1-c1cc(Nc2cnc(C#N)cn2)n[nH]1 + Nc1ccc(C#CCN(C(=O)Cc2ncc(C(F)(F)F)cc2C(F)(F)F)c2ccc(F)cc2)nn1 was tested. Which IC50 (second compound 0.0316 µM) did it give?
Answer: The IC50 was > 1000 nM.

Question: And the IC50 (second compound 0.1 µM)?
Answer: Its IC50 is 685 nM.

Question: What about the IC50 (second compound 0.316 µM) of the same molecule?
Answer: Its IC50 is > 1000 nM.

Question: What about the IC50 (second compound 1 µM) of the same molecule?
Answer: The IC50 was 670 nM.

Question: And the IC50 (second compound 3.16 µM)?
Answer: The IC50 was > 1000 nM.

Question: And the IC50 (second compound 10 µM)?
Answer: Its IC50 is > 1000 nM.

Question: And the viability, T/C (second compound 0.0316 µM, first compound 0.00316 µM)?
Answer: Its viability, T/C is 101%.

Question: And the viability, T/C (second compound 0.0316 µM, first compound 0.01 µM)?
Answer: The viability, T/C was 113%.

Question: And the viability, T/C [1]?
Answer: The viability, T/C was 83.8%.

Question: And the viability, T/C [2]?
Answer: The viability, T/C was 68.4%.

Question: What about the viability, T/C [3] of the same molecule?
Answer: Its viability, T/C is 58.9%.

Question: What about the viability, T/C [4] of the same molecule?
Answer: Its viability, T/C is 50.2%.

Question: And the viability, T/C (second compound 0.1 µM, first compound 0.00316 µM)?
Answer: Its viability, T/C is 104%.

Question: And the viability, T/C (second compound 0.1 µM, first compound 0.01 µM)?
Answer: Its viability, T/C is 107%.

Question: What about the viability, T/C [5] of the same molecule?
Answer: The viability, T/C was 76.9%.

Question: What about the viability, T/C [6] of the same molecule?
Answer: The viability, T/C was 88.8%.

Question: What about the viability, T/C [7] of the same molecule?
Answer: The viability, T/C was 58.2%.

Question: What about the viability, T/C [8] of the same molecule?
Answer: The viability, T/C was 44.3%.

Question: What about the viability, T/C (second compound 0.316 µM, first compound 0.00316 µM) of the same molecule?
Answer: Its viability, T/C is 105%.

Question: What about the viability, T/C (second compound 0.316 µM, first compound 0.01 µM) of the same molecule?
Answer: Its viability, T/C is 101%.

Question: And the viability, T/C [9]?
Answer: Its viability, T/C is 88.2%.

Question: And the viability, T/C [10]?
Answer: The viability, T/C was 62.1%.

Question: What about the viability, T/C [11] of the same molecule?
Answer: The viability, T/C was 57.8%.

Question: And the viability, T/C [12]?
Answer: Its viability, T/C is 54.4%.

Question: What about the viability, T/C (second compound 1 µM, first compound 0.00316 µM) of the same molecule?
Answer: The viability, T/C was 109%.

Question: And the viability, T/C (second compound 1 µM, first compound 0.01 µM)?
Answer: The viability, T/C was 88.5%.

Question: What about the viability, T/C [13] of the same molecule?
Answer: Its viability, T/C is 80.5%.

Question: What about the viability, T/C [14] of the same molecule?
Answer: The viability, T/C was 70%.

Question: And the viability, T/C [15]?
Answer: The viability, T/C was 53.9%.

Question: And the viability, T/C [16]?
Answer: The viability, T/C was 47.1%.

Question: And the viability, T/C (second compound 3.16 µM, first compound 0.00316 µM)?
Answer: Its viability, T/C is 101%.

Question: And the viability, T/C (second compound 3.16 µM, first compound 0.01 µM)?
Answer: The viability, T/C was 96.9%.

Question: And the viability, T/C [17]?
Answer: The viability, T/C was 81.9%.

Question: What about the viability, T/C [18] of the same molecule?
Answer: The viability, T/C was 66.8%.

Question: What about the viability, T/C [19] of the same molecule?
Answer: The viability, T/C was 51.2%.

Question: What about the viability, T/C [20] of the same molecule?
Answer: Its viability, T/C is 54.9%.

Question: And the viability, T/C (second compound 10 µM, first compound 0.00316 µM)?
Answer: Its viability, T/C is 86.8%.

Question: And the viability, T/C (second compound 10 µM, first compound 0.01 µM)?
Answer: The viability, T/C was 102%.

Question: What about the viability, T/C [21] of the same molecule?
Answer: Its viability, T/C is 76.9%.

Question: What about the viability, T/C [22] of the same molecule?
Answer: The viability, T/C was 69.8%.

Question: And the viability, T/C [23]?
Answer: The viability, T/C was 57%.

Question: And the viability, T/C [24]?
Answer: The viability, T/C was 54%.

— PubChem BioAssay AID1963836 (Molecular Pharmacology Branch, DTP, NCI, 2024)
